# In ChEMBL document CHEMBL1146080, “Novel, achiral 1,3,4-benzotriazepine analogues of 1,4-benzodiazepine-based CCK(2) antagonists that display high selectivity over CCK(1) receptors” (J Med Chem, 2006):
# Active and inactive are the calls of the source. No cut-off for these calls is given here.
# Legend:
# [1] = biological target: T1, Gastrin/cholecystokinin type B receptor (Homo sapiens, UniProt P32239); experiment: Displacement of [125I]BH-CCK-8S from human recombinant CCK2 receptor expressed in NIH3T3 cells; type: cell-based
# T1 sequence (P32239 whole entry): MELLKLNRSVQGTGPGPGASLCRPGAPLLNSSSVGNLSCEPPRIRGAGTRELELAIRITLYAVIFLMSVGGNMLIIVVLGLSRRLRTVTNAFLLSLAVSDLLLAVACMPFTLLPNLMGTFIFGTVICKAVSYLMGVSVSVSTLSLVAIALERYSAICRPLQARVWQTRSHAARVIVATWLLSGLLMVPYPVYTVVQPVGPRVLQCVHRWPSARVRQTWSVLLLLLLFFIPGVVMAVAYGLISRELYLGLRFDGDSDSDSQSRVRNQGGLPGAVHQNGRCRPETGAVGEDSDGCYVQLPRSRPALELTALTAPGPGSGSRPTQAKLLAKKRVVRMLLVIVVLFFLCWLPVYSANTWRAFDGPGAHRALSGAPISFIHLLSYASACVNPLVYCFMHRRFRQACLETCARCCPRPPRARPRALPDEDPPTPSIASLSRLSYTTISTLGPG
# [2] = biological target: T2, Cholecystokinin receptor type A (Homo sapiens, UniProt P32238); experiment: Displacement of [3H]L-364718 from human recombinant CCK1 receptor expressed in PC3 cell line; type: cell-based, PC-3
# T2 sequence (P32238 whole entry): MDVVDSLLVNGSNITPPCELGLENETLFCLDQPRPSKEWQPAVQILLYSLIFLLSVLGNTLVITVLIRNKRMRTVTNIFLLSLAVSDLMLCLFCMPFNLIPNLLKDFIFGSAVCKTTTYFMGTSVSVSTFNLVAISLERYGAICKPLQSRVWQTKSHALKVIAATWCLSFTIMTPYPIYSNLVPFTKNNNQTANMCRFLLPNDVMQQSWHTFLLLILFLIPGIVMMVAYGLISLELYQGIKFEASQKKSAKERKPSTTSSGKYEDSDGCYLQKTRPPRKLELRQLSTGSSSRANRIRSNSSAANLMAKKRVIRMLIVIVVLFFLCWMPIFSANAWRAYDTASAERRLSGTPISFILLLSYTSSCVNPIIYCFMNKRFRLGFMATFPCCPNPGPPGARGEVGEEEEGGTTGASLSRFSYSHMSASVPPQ
# [3] = biological target: T3, Gastrin/cholecystokinin type B receptor (Rattus norvegicus, UniProt P30553); experiment: Affinity for CCK2 receptor assessed by inhibition of pentagastrin-stimulated acid secretion in perfused rat stomach; type: functional, tissue-based; details: read-out: pA2 (converted)
# T3 sequence (P30553 whole entry): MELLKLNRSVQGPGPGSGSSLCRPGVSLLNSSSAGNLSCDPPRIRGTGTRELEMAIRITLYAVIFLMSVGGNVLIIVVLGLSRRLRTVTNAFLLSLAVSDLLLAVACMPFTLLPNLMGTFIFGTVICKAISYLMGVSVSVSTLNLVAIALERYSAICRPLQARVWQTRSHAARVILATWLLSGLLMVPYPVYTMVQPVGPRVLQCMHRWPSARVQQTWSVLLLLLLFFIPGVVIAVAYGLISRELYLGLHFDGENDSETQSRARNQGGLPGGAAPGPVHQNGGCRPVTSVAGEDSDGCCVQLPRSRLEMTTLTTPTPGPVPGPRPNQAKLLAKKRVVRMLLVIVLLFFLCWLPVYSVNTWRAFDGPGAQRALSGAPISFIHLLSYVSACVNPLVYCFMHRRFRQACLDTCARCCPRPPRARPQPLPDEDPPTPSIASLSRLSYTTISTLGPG
# [4] = biological target: T4, Cholecystokinin receptor type A (Homo sapiens) (UniProt P32238); experiment: Inhibition of [3H]L-364718 binding to human recombinant CCK1 receptor expressed in CHO cell line at 10 uM; type: cell-based
# T4 sequence (whole entry): T2 sequence (P32238 whole entry)
# [5] = biological target: T5, Gastrin/cholecystokinin type B receptor (Rattus norvegicus) (UniProt P30553); experiment: Affinity for CCK2 receptor assessed by inhibition of pentagastrin-stimulated acid secretion in perfused rat stomach at 1 uM; type: functional, tissue-based
# T5 sequence (whole entry): T3 sequence (P30553 whole entry)
# [6] = biological target: T4, Cholecystokinin receptor type A (Homo sapiens); experiment: Inhibition of [3H]L-364718 binding to human recombinant CCK1 receptor expressed in PC3 cell line at 10 uM; type: cell-based; details: PC-3
# [7] = biological target: T2, Cholecystokinin receptor type A; experiment: Displacement of [3H]L-364718 from human recombinant CCK1 receptor expressed in CHO cell line; type: cell-based
# [8] = biological target: T6, Gastrin/cholecystokinin type B receptor (Canis lupus familiaris, UniProt P30552); experiment: Binding affinity to canine CCK2 receptor
# T6 sequence (P30552 whole entry): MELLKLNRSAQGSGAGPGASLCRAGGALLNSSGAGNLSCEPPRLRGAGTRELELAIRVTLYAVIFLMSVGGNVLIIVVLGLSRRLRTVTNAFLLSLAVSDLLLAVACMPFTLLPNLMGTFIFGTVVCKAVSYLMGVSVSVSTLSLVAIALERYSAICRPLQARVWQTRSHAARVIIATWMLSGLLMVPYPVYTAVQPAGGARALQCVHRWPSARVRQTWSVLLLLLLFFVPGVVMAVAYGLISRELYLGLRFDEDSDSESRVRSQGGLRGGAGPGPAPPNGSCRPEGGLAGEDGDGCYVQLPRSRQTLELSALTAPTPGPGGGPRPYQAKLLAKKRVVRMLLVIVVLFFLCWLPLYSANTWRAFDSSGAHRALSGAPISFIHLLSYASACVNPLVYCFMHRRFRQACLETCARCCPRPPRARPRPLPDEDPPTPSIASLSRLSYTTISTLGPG
Compound,Ki [1] [nM],Ki [2] [nM],further results
CNc1cccc(NC(=O)C[C@@H]2N=C(C3CCCCC3)c3ccccc3N(CC(=O)C(C)(C)C)C2=O)c1,6.03,1170,Kb [3]: 28.2 nM
CNc1cccc(NC(=O)N[C@@H]2N=C(c3ccccn3)c3ccccc3N(CC(=O)C(C)(C)C)C2=O)c1 [NETAZEPIDE],0.138,30.2,Kb [3]: 0.0794 nM
CNc1cccc(NC(=O)CN2N=C(c3ccccn3)c3ccccc3N(CC(=O)C(C)(C)C)C2=O)c1,195,,Kb [3]: 224 nM; inhibition [6]: 22%
Cc1cccc(NC(=O)N[C@@H]2N=C(c3ccccc3)c3ccccc3N(C)C2=O)c1 [L-365260],,174,
CNc1cccc(NC(=O)C[C@H]2N=C(C3CCCCC3)c3ccccc3N(CC(=O)C(C)(C)C)C2=O)c1,13.2,724,Kb [3]: 28.8 nM
CC(C)(C)C(=O)CN1C(=O)N(CC(=O)Nc2cccc(O)c2)N=C(C2CCCCC2)c2ccccc21,13.2,,Ki [7]: 1510 nM
CC(C)(C)C(=O)CN1C(=O)N(CC(=O)Nc2cccc(N3CCOCC3)c2)N=C(C2CCCCC2)c2ccccc21,16.6,,inhibition [4]: 42%
CNc1cccc(NC(=O)CN2N=C(c3ccccc3)c3ccccc3N(CC(=O)C(C)(C)C)C2=O)c1,74.1,,inhibition [6]: 21%
CNc1cccc(NC(=O)CN2N=C(c3ccccn3)c3ccccc3N(CC(=O)N3CCCC3)C2=O)c1,2510,,
CNc1cccc(NC(=O)CN2N=C(c3ccccn3)c3ccccc3N(CC(=O)c3ccccc3C)C2=O)c1,288,,

# The remaining compounds from weak to strong by Ki [1], led by results:
Ki [1] [nM],Ki [2] [nM],Compound,further results
44.7,> 10000,CCOCCNc1cccc(NC(=O)CN2N=C(C3CCCCC3)c3ccccc3N(CC(=O)C(C)(C)C)C2=O)c1,
29.5,,CNCCN(C)c1cccc(NC(=O)CN2N=C(C3CCCCC3)c3ccccc3N(CC(=O)C(C)(C)C)C2=O)c1,Ki [7]: 8710 nM
26.9,,CC(C)(C)C(=O)CN1C(=O)N(CC(=O)Nc2cccc(N)c2)N=C(C2CCCCC2)c2ccccc21,inhibition [4]: 40%
15.8,> 10000,CC(C)(C)C(=O)CN1C(=O)N(CC(=O)Nc2cccc(N3CCCC3)c2)N=C(C2CCCCC2)c2ccccc21,
15.1,5890,CC(C)(C)C(=O)CN1C(=O)N(CC(=O)Nc2cccc(CO)c2)N=C(C2CCCCC2)c2ccccc21,
9.12,,CC(C)(C)C(=O)CN1C(=O)N(CC(=O)Nc2cccc(-n3ccnc3)c2)N=C(C2CCCCC2)c2ccccc21,inhibition [4]: 57%
8.91,,Cc1cccc(NC(=O)CN2N=C(C3CCCCC3)c3ccccc3N(CC(=O)C(C)(C)C)C2=O)c1,inhibition [6]: 27%; pA2 [5]: inactive
7.94,> 10000,CNc1cccc(NC(=O)CN2N=C(C3CCCCC3)c3ccccc3N(CC(=O)C(C)(C)C)C2=O)c1,
6.03,,CN(C)c1cccc(NC(=O)CN2N=C(C3CCCCC3)c3ccccc3N(CC(=O)C(C)(C)C)C2=O)c1,inhibition [6]: 16%
5.5,,COc1cccc(NC(=O)CN2N=C(C3CCCCC3)c3ccccc3N(CC(=O)C(C)(C)C)C2=O)c1,inhibition [4]: 46%; pA2 [5]: inactive
5.13,11200,CC(C)(C)C(=O)CN1C(=O)N(CC(=O)Nc2cccc(C(=O)O)c2)N=C(C2CCCCC2)c2ccccc21,Kb [3]: 0.977 nM; Ki [8]: 12.3 nM
